Columns and labels:
[1] = pH dependent kinetic solubility in hydrochloride, citrate and phosphate buffers; assay type: physicochemical; conditions: 23 °C, kinetic from dmso stock, tested 10 to 100 µM, n = 2
Protocol: Calibration standards were prepared by spiking 5 μL of DMSO stock solutions into 995 μL acetonitrile/buffer (1:1) mixture. Following centrifugation (10,000 rpm, 10 min, 25 °C) the reaction samples were diluted 1:1 with acetonitrile.

[2] = Solubility and stability in simulated gastric fluid (SGF); assay type: in vitro ADME; conditions: pH 1.2, 37 °C, n = 2
Protocol: (§1) SGF and SIF were prepared as per USP method. Briefly, SGF was prepared by adding 2 g of sodium chloride and 3.2 g of pepsin with water and pH was adjusted to 1.2 ± 0.1 using hydrochloric acid (7 mL) and volume made up to 1 L. SIF was prepared by dissolving 6.8 g monobasic potassium phosphate and 10 g pancreatin in Milli-Q water (Millipore, Billerica, MA, USA). pH was adjusted to 6.8 ± 0.1 with sodium hydroxide solution and volume was made upto 1 L. Reactions were initiated by spiking DMSO stock solutions of GE phenolics 10 μL into 1990 μL of SGF and SIF incubated at 37 °C for 10 min. Samples (200 μL) were withdrawn at 0, 15, 30, and 60 min for SGF and at 0, 30, 60, and 120 min for SIF and quenched with 200 μL acetonitrile containing internal standard.

[3] = Solubility and stability in simulated intestinal fluid (SIF); assay type: in vitro ADME; conditions: pH 6.8, 37 °C, n = 2
Protocol: as §1

[4] = Liver microsomal stability, mouse; assay type: in vitro ADME, CD1 mouse; conditions: protein 0.5 mg/mL; for remaining at 0.5 h, 10 µM: CD1, pooled liver microsomes, pH 7.4, substrate 10 µM, n = 2, read-out: % Remaining at 30 min; for Intrinsic Clearance: mouse liver microsomes, substrate 10 µM, 45 mg protein/g liver
Protocol: (§2) Pooled liver microsomes from CD1 mouse, IGS Sprague-Dawley rat, Beagle dog, and mixed gender human were used for assays. Incubations (1 mL) consisted of liver microsomes (0.5 mg/mL), NADPH (1 mM) and 100 mM sodium phosphate buffer (pH 7.4). Following pre-incubation (10 min, 37 °C), reactions were initiated by spiking ACN/DMSO (80:20) stock solutions of GE phenolics (5 μL, 10 μM). Samples (100 μL) were withdrawn at 0, 5, 10, 15, 20 and 30 min and quenched with 200 μL acetonitrile containing internal standard. Concomitant NADPH-free control incubations were prepared similarly.

[5] = Liver microsomal stability, rat; assay type: in vitro ADME, IGS Sprague-Dawley rat; conditions: protein 0.5 mg/mL; for remaining at 0.5 h, 10 µM: IGS Sprague-Dawley, pooled liver microsomes, pH 7.4, substrate 10 µM, n = 2, read-out: % Remaining at 30 min; for Intrinsic Clearance: rat liver microsomes, substrate 10 µM, 45 mg protein/g liver
Protocol: as §2

[6] = Liver microsomal stability, dog; assay type: in vitro ADME, Beagle dog; conditions: protein 0.5 mg/mL; for remaining at 0.5 h, 10 µM: Beagle, pooled liver microsomes, pH 7.4, substrate 10 µM, n = 2, read-out: % Remaining at 30 min; for Intrinsic Clearance: dog liver microsomes, substrate 10 µM, 45 mg protein/g liver
Protocol: as §2

[7] = Liver microsomal stability, statements across species; assay type: in vitro ADME; conditions: CD1 (mouse), IGS Sprague-Dawley (rat), Beagle (dog), human, pooled liver microsomes, pH 7.4
Protocol: as §2

[8] = 100 mM citrate buffer, aqueous buffer, pH 4, citrate buffer
[9] = 100 mM phosphate buffer, aqueous buffer, pH 7.4, phosphate buffer
[10] = simulated gastric fluid, pH 2, hydrochloride buffer

| Compound | solubility at 2 h [1, 8] | solubility at 2 h [1, 9] | solubility at 2 h [1, 10] | half-life at 10 µM [2] | half-life at 10 µM [3] | remaining at 0.5 h, 10 µM [4] | Intrinsic Clearance [4] | remaining at 0.5 h, 10 µM [5] | Intrinsic Clearance [5] | remaining at 0.5 h, 10 µM [6] | Intrinsic Clearance [6] | half-life at 10 µM [7] |
| --- | --- | --- | --- | --- | --- | --- | --- | --- | --- | --- | --- | --- |
| CCCCCCCC(O)CC(=O)CCc1ccc(O)c(OC)c1 (stereo not shown) [8G, 8-gingerol] | > 100 µM | > 100 µM | > 100 µM | > 1 h | > 2 h | 3% | 15.1 mL/min/g Liver | 9% | 7.0 mL/min/g Liver | 6% | 14.0 mL/min/g Liver | < 0.5 h |
| CCCCC/C=C/C(=O)CCc1ccc(O)c(OC)c1 [6S, 6-shogaol] | < 10 µM | < 10 µM | < 10 µM | > 1 h | > 2 h | 3% | 15.7 mL/min/g Liver | 1% | 13.0 mL/min/g Liver | 9% | 29.9 mL/min/g Liver | < 0.5 h |
| CCCCCCCCCC(O)CC(=O)CCc1ccc(O)c(OC)c1 (stereo not shown) [10G, 10-gingerol] | < 10 µM | < 10 µM | < 10 µM | > 1 h | > 2 h | 10% | 8.0 mL/min/g Liver | 13% | 5.4 mL/min/g Liver | 45% | 5.6 mL/min/g Liver | – |
| CCCCC[C@H](O)CC(=O)CCc1ccc(O)c(OC)c1 [6G, 6-gingerol] | > 100 µM | > 100 µM | > 100 µM | > 1 h | > 2 h | 30% | 10.5 mL/min/g Liver | 50% | 11.2 mL/min/g Liver | 67% | 14.1 mL/min/g Liver | – |

Source: article PMC6154694, “Absorption, Metabolic Stability, and Pharmacokinetics of Ginger Phytochemicals” (Molecules : A Journal of Synthetic Chemistry and Natural …, 2017)
